# pIC50: −log10 of the molar value.
# Biological target: T1, recombinant His-tagged cytoplasmic domains of TRKA receptor (NTRK1, PV3144, aa 441-796) (Homo sapiens, UniProt P04629)
# T1 construct: aa 441-796; His; purchased Invitrogen PV3144
# Experiment: Isolated TRK enzyme assay (HTRF KinEASE-TK, PV3144 TrkA enzyme assay)
# Format: biochemical
# Settings: 4 nM enzyme, 40 uM ATP, 35 min, arithmetic mean where more than one reading
# Experimental: Isolated TRK Enzyme assays use the HTRF KinEASE-TK kit (Cisbio Cat #62TK0PEJ) with recombinant His-tagged cytoplasmic domains of TRKA receptor sourced from Invitrogen (see table below). This activity-assay measures the phosphorylation of tyrosine residues within a substrate from the HTRF kit which has been validated by Cisbio for a variety of tyrosine kinases including the TRK receptors.
# 0.5 mM stock solutions of test compounds are prepared and serially diluted in 100% DMSO. […] Greiner low volume black plates containing 0.2 ul of serially diluted compound, standard and HPE/ZPE are created using the Bravo nanolitre dispenser.
# 1× enzyme buffer is prepared from 5× Enzymatic Buffer from the Cisbio KinEASE TK kit using MilliQ water. The buffer is then supplemented with 10 mM MgCl and 2 mM DTT (both from Sigma).
# Following this preactivation step, 5 ul/well of enzyme+ATP mix is added using a Multidrop Micro to the assay plate, spotted with 0.2 ul 100% DMSO compound. This is left for 20 mins at room temperature before adding 5 ul of 2 uM TK-substrate-Biotin (from the Cisbio kit) diluted in 1× enzyme buffer (1 uM FAC) using the Multidrop Micro. The reaction is incubated at room temperature for the optimized assay reaction time (see table).
# After the Detection Reagent addition, plates are covered and incubated at room temperature for 60 minutes. […] Test compound data are expressed as percentage inhibition defined by HPE and ZPE values for each plate. Percentage inhibition in the presence of test compound is plotted against compound concentration on a log scale to determine an IC50 from the resultant sigmoid curve.
# Where more than one reading was taken, the arithmetic mean is presented.
# T1 sequence (P04629 441-796): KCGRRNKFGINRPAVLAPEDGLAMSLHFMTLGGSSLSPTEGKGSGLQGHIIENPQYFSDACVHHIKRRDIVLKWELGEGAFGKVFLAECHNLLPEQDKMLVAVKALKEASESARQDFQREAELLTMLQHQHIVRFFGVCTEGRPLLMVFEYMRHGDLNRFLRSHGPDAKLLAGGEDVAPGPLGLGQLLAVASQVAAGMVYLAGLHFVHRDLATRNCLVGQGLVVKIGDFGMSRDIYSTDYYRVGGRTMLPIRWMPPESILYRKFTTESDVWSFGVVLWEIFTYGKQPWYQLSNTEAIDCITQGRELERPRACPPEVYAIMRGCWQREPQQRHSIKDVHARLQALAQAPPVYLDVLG
row,pIC50,SMILES
1,8.11,"CS(=O)(=O)Cn1cc(-c2cc(C(N)=O)c(O[C@@H]3CCN(C(=O)Cc4ccc(OC5CC5)cc4)C[C@@H]3F)cn2)cn1 [Example 35, 5-{[(3S,4R)-1-{[4-(cyclopropyloxy)phenyl]acetyl}-3-fluoropiperidin-4-yl]oxy}-2-{1-[(methylsulfonyl)methyl]-1H-pyrazol-4-yl}pyridine-4-carboxamide]"
2,8.41,CC(C)(O)Cn1cc(-c2ccc(OC3CCN(C(=O)Cc4ccc(OC(F)(F)F)cc4)CC3)c(C(N)=O)c2)cn1 [Example 135]
3,8.36,"C[C@@H](CO)n1cc(-c2ccc(OC3CCN(C(=O)Cc4ccc(OC(F)(F)F)cc4)CC3)c(C(N)=O)c2)cn1 [Example 131, 5-{1-[(2S)-1-hydroxypropan-2-yl]-1H-pyrazol-4-yl}-2-[(1-{[4-(trifluoromethoxy)phenyl]acetyl}piperidin-4-yl)oxy]benzamide]"
4,7.97,"NC(=O)c1cc(-c2c[nH]c(C3(F)COC3)n2)ccc1OC1CCN(C(=O)Cc2ccc(OC(F)(F)F)cc2)CC1 [Example 117, 5-[2-(3-fluorooxetan-3-yl)-1H-imidazol-4-yl]-2-[(1-{[4-(trifluoromethoxy)phenyl]acetyl}piperidin-4-yl)oxy]benzamide]"
5,7.77,"Cn1cncc1-c1ccc(OC2CCN(C(=O)Cc3ccc(OC(F)(F)F)cc3)CC2)c(C(N)=O)c1 [Example 145, 5-(1-methyl-1H-imidazol-5-yl)-2-[(1-{[4-(trifluoromethoxy)phenyl]acetyl}piperidin-4-yl)oxy]benzamide]"
6,8.21,"Cc1nc(OC2CCN(C(=O)Cc3ccc(OC(F)(F)F)cc3)CC2)c(C(N)=O)cc1-c1cn(C)cn1 [Example 69, 6-methyl-5-(1-methyl-1H-imidazol-4-yl)-2-[(1-{[4-(trifluoromethoxy)phenyl]acetyl}piperidin-4-yl)oxy]pyridine-3-carboxamide]"
7,7.86,"Cn1cc(-c2ccc(OC3CCN(C(=O)Cc4ccc(OC(F)(F)F)cc4)CC3)c(C(N)=O)c2)c(C#N)n1 [Example 149, 5-(3-cyano-1-methyl-1H-pyrazol-4-yl)-2-[(1-{[4-(trifluoromethoxy)phenyl]acetyl}piperidin-4-yl)oxy]benzamide]"
8,8.16,CC(C)(O)Cn1cc(-c2ccc(O[C@@H]3CCN(C(=O)Cc4ccc(OC5CC5)cn4)C[C@H]3F)c(C(N)=O)c2)cn1 (racemic) [Example 43]
9,8.29,C[C@H](CO)n1cc(-c2ccc(OC3CCN(C(=O)Cc4ccc(OC(F)(F)F)cc4)CC3)c(C(N)=O)c2)cn1 [Example 132]
10,7.71,"Cc1n[nH]c(C)c1-c1cnc(O[C@H]2CCN(C(=O)Cc3ccc(OC4CC4)cn3)C[C@@H]2F)c(C(N)=O)c1 [Example 167, 2-{[(3S,4S)-1-{[5-(cyclopropyloxy)pyridin-2-yl]acetyl}-3-fluoropiperidin-4-yl]oxy}-5-(3,5-dimethyl-1H-pyrazol-4-yl)pyridine-3-carboxamide]"
11,8.47,"CS(=O)(=O)Cn1cc(-c2cc(C(N)=O)c(O[C@@H]3CCN(C(=O)Cc4ccc(OC(F)(F)F)cc4)C[C@@H]3F)cn2)cn1 [Example 36, 5-{[(3S,4R)-3-fluoro-1-{[4-(trifluoromethoxy)phenyl]acetyl}piperidin-4-yl]oxy}-2-{1-[(methylsulfonyl)methyl]-1H-pyrazol-4-yl}pyridine-4-carboxamide]"
12,7.75,"Cn1cnc(-c2ccc(OC3CCN(C(=O)Cc4ccc(OC(F)(F)F)cc4)C4CC34)c(C(N)=O)c2)c1 (centres unmarked) [Example 159, 5-(1-methyl-1H-imidazol-4-yl)-2-[(2-{[4-(trifluoromethoxy)phenyl]acetyl}-2-azabicyclo[4.1.0]hept-5-yl)oxy]benzamide]"
13,8.44,"CC1CN(C(=O)Cc2ccc(OC(F)(F)F)cc2)CCC1Oc1ccc(-c2cn(C)cn2)cc1C(N)=O (racemic) [Example 50, Racemic 2-((3-methyl-1-(2-(4-(trifluoromethoxy)phenyl)acetyl)piperidin-4-yl)oxy)-5-(1-methyl-1H-imidazol-4-yl)benzamide]"
14,8.13,"COCc1ccc(-c2cnc(OC3CCN(C(=O)Cc4ccc(OC(F)(F)F)cc4)CC3)c(C(N)=O)c2)cc1 [Example 97, 5-[4-(methoxymethyl)phenyl]-2-[(1-{[4-(trifluoromethoxy)phenyl]acetyl}piperidin-4-yl)oxy]pyridine-3-carboxamide]"
15,8.01,"Cn1cc(-c2ccc(OC3CCN(C(=O)Cc4ccc(C(C)(C)C)cc4)CC3)c(C(N)=O)c2)cn1 [Example 107, 2-({1-[(4-tert-butylphenyl)acetyl]piperidin-4-yl}oxy)-5-(1-methyl-1H-pyrazol-4-yl)benzamide]"
16,8.35,"Cn1cnc(-c2ccc(O[C@@H]3CCN(C(=O)Cc4ccc(OC(F)(F)F)cc4)C[C@@H]3F)c(C(N)=O)c2)c1 (racemic) [Example 52, 1:1 racemic mixture of 2-(((3S,4R)-3-fluoro-1-(2-(4-(trifluoromethoxy)phenyl)acetyl)piperidin-4-yl)oxy)-5-(1-methyl-1H-imidazol-4-yl)benzamide + (3R,4S) enantiomer]"
17,9.05,"NC(=O)c1cc(-c2cn[nH]c2)ccc1O[C@H]1CCN(C(=O)Cc2ccc(OC(F)(F)F)cc2)C[C@H]1F [Example 5, 2-{[(3R,4S)-3-fluoro-1-{[4-(trifluoromethoxy)phenyl]acetyl}piperidin-4-yl]oxy}-5-(1H-pyrazol-4-yl)benzamide]"
18,7.96,"NC(=O)c1cc(-c2cccnc2)ccc1OC1CCN(C(=O)Cc2ccc(OC(F)(F)F)cc2)CC1 [Example 150, 5-(pyridin-3-yl)-2-[(1-{[4-(trifluoromethoxy)phenyl]acetyl}piperidin-4-yl)oxy]benzamide]"
19,8.74,CC(C)(O)Cn1cc(-c2ccc(O[C@H]3CCN(C(=O)Cc4ccc(OC5CC5)cn4)C[C@H]3F)c(C(N)=O)c2)cn1 (racemic) [Example 45]
20,8.82,"Cn1cnc(-c2ccc(O[C@@H]3CCN(C(=O)Cc4ccc(OC(F)(F)F)cc4)C[C@@H]3F)c(C(N)=O)c2)c1 [Example 6, 2-{[(3S,4R)-3-fluoro-1-(2-(4-(trifluoromethoxy)phenyl)acetyl)piperidin-4-yl]oxy}-5-(1-methyl-1H-imidazol-4-yl)benzamide]"
21,8.42,Cc1nn(C[C@@H](O)CO)c(C)c1-c1ccc(OC2CCN(C(=O)Cc3ccc(OC(F)(F)F)cc3)CC2)c(C(N)=O)c1 [Example 123]
22,8.74,"CS(=O)(=O)Cn1cc(-c2cnc(O[C@@H]3CCN(C(=O)Cc4ccc(OC(F)(F)F)cc4)C[C@@H]3F)c(C(N)=O)c2)cn1 [Example 55, 2-{[(3S,4R)-3-fluoro-1-{[4-(trifluoromethoxy)phenyl]acetyl}piperidin-4-yl]oxy}-5-{1-[(methylsulfonyl)methyl]-1H-pyrazol-4-yl}pyridine-3-carboxamide]"
23,8.54,"NC(=O)c1cc(-c2cn(C[C@@H](O)CO)cn2)ccc1OC1CCN(C(=O)Cc2ccc(OC(F)(F)F)cc2)CC1 [Example 126, 5-{1-[(2R)-2,3-dihydroxypropyl]-1H-imidazol-4-yl}-2-[(1-{[4-(trifluoromethoxy)phenyl]acetyl}piperidin-4-yl)oxy]benzamide]"
24,8.59,"NC(=O)c1cc(-c2cnn(C3COC3)c2)ccc1OC1CCN(C(=O)Cc2ccc(OC(F)(F)F)cc2)CC1 [Example 57, 5-[1-(oxetan-3-yl)-1H-pyrazol-4-yl]-2-[(1-{[4-(trifluoromethoxy)phenyl]acetyl}piperidin-4-yl)oxy]benzamide]"
25,7.90,"Cn1ccc(-c2ccc(OC3CCN(C(=O)Cc4ccc(OC(F)(F)F)cc4)CC3)c(C(N)=O)c2)n1 [Example 148, 5-(1-methyl-1H-pyrazol-3-yl)-2-[(1-{[4-(trifluoromethoxy)phenyl]acetyl}piperidin-4-yl)oxy]benzamide]"
26,8.13,"CS(=O)(=O)Cn1cc(-c2cc(C(N)=O)c(O[C@@H]3CCN(C(=O)Cc4ccc(OC(F)(F)F)c(F)c4)C[C@@H]3F)cn2)cn1 [Example 37, 5-{[(3S,4R)-3-fluoro-1-{[3-fluoro-4-(trifluoromethoxy)phenyl]acetyl}piperidin-4-yl]oxy}-2-{1-[(methylsulfonyl)methyl]-1H-pyrazol-4-yl}pyridine-4-carboxamide]"
27,8.60,"NC(=O)c1cc(-c2c[nH]cn2)cnc1O[C@@H]1CCN(C(=O)Cc2ccc(OC(F)(F)F)cc2)C[C@@H]1F [Example 81, 2-{[(3S,4R)-3-fluoro-1-{[4-(trifluoromethoxy)phenyl]acetyl}piperidin-4-yl]oxy}-5-(1H-imidazol-4-yl)pyridine-3-carboxamide]"
28,8.64,"CS(=O)(=O)Cn1cc(-c2cnc(O[C@@H]3CCN(C(=O)Cc4ccc(OC5CC5)cc4)C[C@@H]3F)c(C(N)=O)c2)cn1 [Example 28, 2-{[(3S,4R)-1-{[4-(cyclopropyloxy)phenyl]acetyl}-3-fluoropiperidin-4-yl]oxy}-5-{1-[(methylsulfonyl)methyl]-1H-pyrazol-4-yl}pyridine-3-carboxamide]"
29,8.30,"CC(N)c1ccc(-c2cnc(OC3CCN(C(=O)Cc4ccc(OC(F)(F)F)cc4)CC3)c(C(N)=O)c2)cc1 (stereo in doubt) [Example 96, 5-{4-[(1S)-1-aminoethyl]phenyl}-2-[(1-{[4-(trifluoromethoxy)phenyl]acetyl}piperidin-4-yl)oxy]pyridine-3-carboxamide]"

# Reference: patent US20170305857A1, “N-ACYLPIPERIDINE ETHER TROPOMYOSIN-RELATED KINASE INHIBITORS” (Pfizer Limited, priority 2014, published 2017)
